Results as given in patent US20250002527A1, “STEROID COMPOUND AND CONJUGATE THEREOF” (DUALITY BIOLOGICS (SUZHOU) CO., LTD., priority 2021, published 2025).

Assays:
Format in all cases: cell-based
glucocorticoid receptor = target: T1, glucocorticoid receptor (Homo sapiens, UniProt P04150); experiment: Measurement 1 of glucocorticoid receptor reporter gene GRE activity; settings: HEK293 transfected with pGL5 and pBIND-GR, 24 hours
T1 construct: expressed in transfected cells; host or cells: HEK293
T1 sequence (P04150 1-777): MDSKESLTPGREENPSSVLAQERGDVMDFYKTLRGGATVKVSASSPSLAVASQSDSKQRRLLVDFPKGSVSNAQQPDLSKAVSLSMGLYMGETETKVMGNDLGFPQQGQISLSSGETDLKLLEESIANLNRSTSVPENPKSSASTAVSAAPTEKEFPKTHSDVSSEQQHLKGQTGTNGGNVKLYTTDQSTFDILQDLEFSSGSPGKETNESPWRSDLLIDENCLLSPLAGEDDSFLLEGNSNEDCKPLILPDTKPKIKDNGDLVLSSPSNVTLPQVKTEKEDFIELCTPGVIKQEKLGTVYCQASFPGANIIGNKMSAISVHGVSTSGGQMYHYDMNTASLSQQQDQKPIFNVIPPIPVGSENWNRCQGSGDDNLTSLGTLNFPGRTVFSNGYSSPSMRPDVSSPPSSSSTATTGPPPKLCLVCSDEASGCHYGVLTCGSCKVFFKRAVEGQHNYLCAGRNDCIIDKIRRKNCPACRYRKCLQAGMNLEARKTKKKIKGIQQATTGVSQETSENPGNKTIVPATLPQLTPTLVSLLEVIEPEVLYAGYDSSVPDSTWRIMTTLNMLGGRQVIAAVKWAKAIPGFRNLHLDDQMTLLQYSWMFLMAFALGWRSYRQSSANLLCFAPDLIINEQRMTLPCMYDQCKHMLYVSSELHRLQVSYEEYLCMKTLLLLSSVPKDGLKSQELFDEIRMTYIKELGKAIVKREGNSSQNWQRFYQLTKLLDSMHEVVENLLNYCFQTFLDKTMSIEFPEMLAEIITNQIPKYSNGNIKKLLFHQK
Method: (§1) HEK293 cells were cultured in DMEM+10% FBS medium in a carbon dioxide incubator humidified at 37° C. at 5% carbon dioxide.
(§2) The prepared transfection mixtures were added to 10 mL of the cell density-adjusted resuspension, mixed well by turning the mixtures upside down, and seeded into a 96-well plate at a volume of 100 μL/well.
(§3) The test plate was detected using the Dual-Glo Luciferase Assay System kit from Promega, and the fluorescence signal of Firefly Luciferase and the fluorescence signal of Renilla Luciferase were read using Enspire, respectively.
The final measurement value was a normalized value “F/R” obtained by dividing the Firefly Luciferase fluorescent signal by the Renilla Luciferase fluorescent signal.
The data were copied and pasted into Excel, and the activation rate was obtained through an equation.
The data were imported into MS Excel and subjected to curve fitting by using XLFit excel add-in version 5.4.0.8 to obtain an EC50 value.
(§4) Y is the agonism and X is the concentration of the compound.

ERα = target: T2, ERα (Homo sapiens, UniProt P03372); experiment: ERα luciferase reporter gene experiment; settings: HEK293 transfected with pBIND-ERα
T2 sequence (P03372 311-547 limits assumed): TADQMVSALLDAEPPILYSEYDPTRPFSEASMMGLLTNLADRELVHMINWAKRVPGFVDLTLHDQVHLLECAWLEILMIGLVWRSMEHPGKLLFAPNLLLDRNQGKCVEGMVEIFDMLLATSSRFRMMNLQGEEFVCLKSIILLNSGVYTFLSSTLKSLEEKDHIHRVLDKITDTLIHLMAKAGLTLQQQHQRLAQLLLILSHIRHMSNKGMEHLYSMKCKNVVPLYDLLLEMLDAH
Method: as §1
• 1) HEK293 cells were trypsinized, and the HEK293 cell resuspension was adjusted to 200,000 cell/mL in medium (96 well plate: 100 μL/well). • 2) Transfection reagent mixtures were prepared according to the table below, mixed well and left at room temperature for 20 minutes.
as §2, with “• 3) The” for “The”, “μL/well. • 4) The 96-well plate was incubated in a humidified incubator at 37° C. and 5% carbon dioxide for 24 hours.” for “μL/well.”
as §3, §4

human PBMC cells = experiment: IFN-α secretion from PBMC under R848 stimulation (compounds); settings: R848 5 μM, 24 hours, mean ± standard deviation
Method: The compounds of the present application were tested for their inhibitory effect on the production of peripheral blood monocytes. The peripheral blood monocytes were treated in vitro with the ligand-drug conjugate at different concentrations, and IFNα and TNFα generated by the peripheral blood monocytes were quantitatively detected after a certain time. The compounds of the present invention were evaluated for in-vitro activity.
The cryopreserved human PBMC cells were resuspended in a complete medium and counted, and the cell suspension was adjusted to 2.5×10*6 cells/mL with the culture medium. After the suspension was centrifuged to collect the cells the next day, the cells were resuspended using fresh culture medium. Test compounds were diluted to 4-fold final concentration in cell culture medium, 50 μL of the compounds were added into a 96-well cell plate, and 100 μL of diluted cells ([…]) were added into each well of the 96-well plate containing the compounds, followed by addition of 50 μL R848 to a final concentration of 5 μM. The cell plate was incubated at 37° C. with 5% CO2 for 24 hours. The supernatant was collected, and the TNF-α and IFN-α concentration levels in the supernatant were detected using an ELISA kit.
50 μL of biotinylated antibody working solution was added into each well. After mixing well, the plate was covered with the plate-sealing membrane and incubated at room temperature for 3 hours. […] The procedure was repeated for 3 times. 100 μL of Streptavidin-HRP working solution was added into each well. The plate was covered with the plate-sealing membrane and incubated at room temperature for 20 minutes. The plate was washed for 3 times, 100 μL of TMB liquid was added into each well, and the plate was incubated for 25 minutes at room temperature (18-25° C.) in the dark. The reaction was stopped by adding 100 μL stop solution rapidly to each well. The reading at a wavelength of 450 nm was detected by an M2e instrument within 10 minutes after termination.
The contents of TNF-α and IFN-α were calculated from the OD450 values.

Structure (SMILES): C[C@]12C=CC(=O)C=C1CC[C@@H]1[C@@H]2[C@@H](O)C[C@@]2(C)[C@H]1C[C@H]1O[C@@H](c3ccc(Cc4ccc(CO)cc4)cc3)O[C@]12C(=O)CO [Compound 4]
- EC50 (glucocorticoid receptor): 0.04 nM
- EC50 (ERα): > 1000 nM
- IFN-α secretion (pg/mL) from PBMC under R848 stimulation (human PBMC cells; compound 4 nM): 13.2 ± 13.2 pg/mL
- IFN-α secretion (pg/mL) from PBMC under R848 stimulation (human PBMC cells; compound 20 nM): 27.9 ± 27.9 pg/mL
- IFN-α secretion (pg/mL) from PBMC under R848 stimulation (human PBMC cells; compound 100 nM): 0 ± 0 pg/mL
